Results as given in publication PMC5002989 (Bioorganic & medicinal chemistry letters, 2016).
Like-named read-outs stand apart in the source and are kept apart here.

Columns and labels:
[1] = Experimental water solubility, thermodynamic solubility method; assay type: physicochemical; settings: for solubility: water, Experimentally determined water solubility of the hydrochloride salt
VMAT2 = VMAT2 (Rattus norvegicus, UniProt Q01827); assay: [3H]DA uptake at VMAT2 in rat striatal vesicle preparations; assay type: biochemical
Sequence of VMAT2 (Q01827 whole entry): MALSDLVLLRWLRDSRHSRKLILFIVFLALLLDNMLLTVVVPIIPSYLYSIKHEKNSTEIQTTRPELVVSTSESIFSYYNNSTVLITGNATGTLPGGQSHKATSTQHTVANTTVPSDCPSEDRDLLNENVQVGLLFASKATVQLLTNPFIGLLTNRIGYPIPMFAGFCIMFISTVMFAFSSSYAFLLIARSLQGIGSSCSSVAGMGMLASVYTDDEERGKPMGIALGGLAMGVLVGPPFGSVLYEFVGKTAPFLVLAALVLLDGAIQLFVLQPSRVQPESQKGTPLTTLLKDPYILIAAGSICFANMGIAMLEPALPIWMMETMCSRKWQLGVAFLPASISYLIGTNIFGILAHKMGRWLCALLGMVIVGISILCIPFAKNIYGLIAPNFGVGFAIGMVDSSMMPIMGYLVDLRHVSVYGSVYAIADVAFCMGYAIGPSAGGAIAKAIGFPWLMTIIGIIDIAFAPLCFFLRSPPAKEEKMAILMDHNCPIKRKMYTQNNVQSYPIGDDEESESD

hERG channel = hERG channel (Homo sapiens, UniProt Q12809); assay: biochemical
Sequence of hERG channel (Q12809 whole entry): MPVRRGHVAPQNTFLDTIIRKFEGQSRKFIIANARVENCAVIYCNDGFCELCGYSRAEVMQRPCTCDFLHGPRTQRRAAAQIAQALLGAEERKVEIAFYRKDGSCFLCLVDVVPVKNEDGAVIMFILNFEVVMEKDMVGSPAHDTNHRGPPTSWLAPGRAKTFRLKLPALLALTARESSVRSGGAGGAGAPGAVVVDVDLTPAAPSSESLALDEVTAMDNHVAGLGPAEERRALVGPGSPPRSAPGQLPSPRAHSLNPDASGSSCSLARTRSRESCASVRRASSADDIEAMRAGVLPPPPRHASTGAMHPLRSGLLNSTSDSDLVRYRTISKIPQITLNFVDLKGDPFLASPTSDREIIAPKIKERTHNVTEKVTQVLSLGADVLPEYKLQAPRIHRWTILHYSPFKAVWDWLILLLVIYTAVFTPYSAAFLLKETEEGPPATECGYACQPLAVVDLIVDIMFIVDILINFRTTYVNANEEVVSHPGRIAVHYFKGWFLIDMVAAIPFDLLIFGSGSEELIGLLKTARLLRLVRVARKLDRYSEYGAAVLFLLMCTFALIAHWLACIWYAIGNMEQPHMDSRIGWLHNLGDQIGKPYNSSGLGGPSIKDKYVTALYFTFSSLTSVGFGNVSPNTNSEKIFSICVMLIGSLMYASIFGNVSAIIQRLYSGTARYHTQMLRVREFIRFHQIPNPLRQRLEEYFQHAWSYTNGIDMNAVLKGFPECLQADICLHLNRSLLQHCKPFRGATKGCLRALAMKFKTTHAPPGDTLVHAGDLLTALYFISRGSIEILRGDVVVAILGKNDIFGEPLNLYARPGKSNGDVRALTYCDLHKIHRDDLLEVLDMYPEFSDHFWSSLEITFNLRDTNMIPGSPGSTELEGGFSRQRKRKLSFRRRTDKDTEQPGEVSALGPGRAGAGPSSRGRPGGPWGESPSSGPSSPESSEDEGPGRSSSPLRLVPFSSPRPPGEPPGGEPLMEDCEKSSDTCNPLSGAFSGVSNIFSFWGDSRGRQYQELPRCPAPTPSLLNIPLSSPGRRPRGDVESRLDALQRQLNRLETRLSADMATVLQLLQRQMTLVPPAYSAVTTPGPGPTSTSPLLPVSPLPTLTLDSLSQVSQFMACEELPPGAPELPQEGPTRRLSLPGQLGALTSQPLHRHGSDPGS

## COc1ccccc1CCN1CCN(CCc2ccccc2OC)CC1.Cl.Cl [Compound 6b]
[1]; listed as C00014
  Experimentally determined water solubility of the hydrochloride salt: 25.0 mg/mL
[1]
  solubility: 33.3 mg/mL

## COc1ccccc1CCN1CCN(CCc2ccccc2)CC1.Cl.Cl [Compound 9a]
[1]
  Experimentally determined water solubility of the hydrochloride salt: 13.5 mg/mL
[1]; listed as C00004
  Experimentally determined water solubility of the hydrochloride salt: 33.3 mg/mL

## Cl.Cl.Clc1ccccc1CCN1CCN(CCc2ccccc2Cl)CC1 [Compound 6e]
[1]; listed as C00020
  Experimentally determined water solubility of the hydrochloride salt: 13.5 mg/mL
[1]
  solubility: 25 mg/mL

## Cl.Cl.Fc1ccc(CCN2CCN(CCc3ccc(F)cc3)CC2)cc1 [Compound 6f]
VMAT2
  [3H]DA uptake Ki in comparison to lobelane: not different from lobelane

## CN1[C@@H](CCc2ccccc2)CCC[C@H]1CCc1ccccc1 [Lobelane (2), lobelane]
hERG channel
  Ki: 238 ± 38.9 nM
